Laboratory results reported in patent US11453671B2, “Pyrazolopyrimidine inhibitors of JAK kinases and uses thereof” (Genentech, Inc., priority 2020, dated 2022).
Where two headings read alike, the source gives them in different places.

Legend:
[1] = target: Recombinant human JAK2 kinase domain protein (Residues 812-1132) (Homo sapiens, UniProt O60674); assay: JAK2 biochemical assay (microfluidic mobility shift, peptide phosphorylation); conditions: Enzyme JAK2 Ki (nM), 25 μM ATP, 0.2 nM total JAK2
Experimental: The in vitro biochemical assays quantify JAK-catalyzed phosphorylation of a synthetic peptide, as detected using a LabChip® EZ Reader II microfluidic mobility shift instrument (PerkinElmer; Waltham, Mass.). […] Y-1B is fluorescently labeled on the N-terminus with 5-FAM (5-carboxyfluorescein) and contains a single tyrosine residue (Y) that can be phosphorylated by JAK activity. The substrate peptide stock is prepared in DMSO at 5 mM.
In each titration experiment, test compound was tested in duplicate at each of the twelve concentrations. Blank reactions contained ATP, peptide, and DMSO, but no JAK or test compound, whereas uninhibited control reactions contained ATP, peptide, JAK, and DMSO, but no test compound.
Peptide plus ATP mixture (24 μL) was added to 1 μL of test compound in DMSO (or DMSO alone). The reactions were initiated by adding 25 μL of JAK enzyme to the inhibitor/peptide/ATP mixture before thoroughly mixing the resultant solution. Reactions were incubated at room temperature (22° C.-23° C.) in a final volume of 50 μL per well in 384-well plates.
In each reaction, the residual Y-1B substrate and the phospho-peptide product generated were separated using the EZ Reader II instrument. Electrophoretic separation of molecules of product from molecules of substrate was achieved using downstream and upstream voltages of −500 and −2600 V, respectively, at an operating pressure of −1.3 psi.
The extent (or percent) of conversion of substrate to product was calculated from the corresponding peak heights in the electropherogram using HTS Well Analyzer software, Version 5.2 (PerkinElmer), and the following equation (Equation 1): % conversion=[P÷(S+P)]×100 Equation 1 where S and P represent the peak heights of the substrate and product, respectively. After any baseline signal from blank wells containing no JAK was subtracted from the signal of all test wells, the % conversion data were converted to fractional activity as shown in Equation 2, where vi and vo are the % conversion in the presence and absence of test compound, respectively.

[2] = target: T1, recombinant human JAK1 kinase domain protein (Residues 854-1154) (Homo sapiens, UniProt P23458); assay: JAK1 biochemical assay (microfluidic mobility shift, peptide phosphorylation); conditions: 25 μM ATP, 1 nM total JAK1; read-out: Enzyme JAK1 Ki
T1 construct: human JAK1 kinase domain protein (Residues 854-1154); purchased Proteros Biostructures GmbH (Martinsried, Germany); host or cells: insect cells
Excerpt: JAK1 and JAK2 Biochemical Assays

[3] = test system: JAK1: IL-13-stimulated STAT6 phosphorylation in BEAS-2B cells; assay: P-STAT6 BEAS-2B+IL-13 Cell Assay; format: cell-based, human; conditions: IL-13 stimulation, read-out: Cellular JAK1 PSTAT6 BEAS2B + IL13 IC50
Experimental: P-STAT6 BEAS-2B+IL-13 Cell Assay
In order to study the effect of JAK1 inhibitors in a cell line that is relevant to the cell biology of human asthma, an IL-13-stimulated STAT6 phosphorylation assay in the human lung bronchial epithelial BEAS-2B cell line was developed.
BEAS-2B cells (ATCC® CRL-9609™) were grown in Bronchial Epithelial Growth Medium (BEGM) (Lonza Catalog No. CC-3170; Walkersville, Md.; or PromoCell Catalog No. C-21060; Heidelberg, Germany). Test compound stock solutions (0.5 mM in DMSO) were serially diluted 1:2 in DMSO to generate a 10-point concentration curve (at 500×test concentration), which was further diluted by a 50-fold dilution step in BEGM to generate a 10× concentration curve (in 2% DMSO). Cells were plated at 100,000 cells/well in 200 μL of BEGM in 96-well plates and incubated for 48 hours at 37° C. in a humidified incubator. Medium was aspirated from the cells and replaced with 70 μL of fresh BEGM. Diluted test compound (10 μL; or 2% DMSO in assay medium) was added to the cells, and the plates were incubated for 1 hour at 37° C. in a humidified incubator. Twenty μL of 250 ng/mL human recombinant IL-13 (Bio Techne Catalog No. 213-ILB) was then added to the cells and incubated for 15 minutes at 37° C. Medium was aspirated from the cells and 60 μL of ice-cold 1×cell lysis buffer (Cell Signaling Technologies; Catalog No. 9803S) containing 1 mM PMSF was added to the cells. Assay plates were incubated at −80° C. for at least 1 hour. P-STAT6 was measured by coating GAR plates (MSD; Catalog No. L45RA-1) with rabbit anti-human total STAT6 antibody (Cell Signaling Technologies; Catalog No. 9362S), incubating the cell lysates in the coated plates overnight at 4° C., and then detecting with mouse anti-phospho-STAT6 (Tyr641) Clone 16E12 antibody (Millipore; Catalog No. 05-590, custom labeled by MSD with SULFO-tag) using standard MSD plate processing, washing, and detection protocols. Plates were read on the MESO SECTOR S600. Data Analysis
Data analysis was performed by subtracting negative control values from all wells and determining percent of control using the positive control values; the IC50 was determined with a four-parameter logistic fit model as shown in Equation 4.

T1 sequence (P23458 854-1154): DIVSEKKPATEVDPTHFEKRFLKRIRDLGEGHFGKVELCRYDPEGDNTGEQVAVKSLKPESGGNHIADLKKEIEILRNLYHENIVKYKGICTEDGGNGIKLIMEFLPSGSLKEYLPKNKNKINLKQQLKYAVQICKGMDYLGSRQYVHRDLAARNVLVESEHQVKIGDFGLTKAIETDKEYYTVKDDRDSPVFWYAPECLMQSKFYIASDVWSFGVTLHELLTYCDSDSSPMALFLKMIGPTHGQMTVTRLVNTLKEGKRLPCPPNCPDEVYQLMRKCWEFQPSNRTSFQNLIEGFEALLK
Chain of Recombinant human JAK2 kinase domain protein (Residues 812-1132) (O60674 812-1132): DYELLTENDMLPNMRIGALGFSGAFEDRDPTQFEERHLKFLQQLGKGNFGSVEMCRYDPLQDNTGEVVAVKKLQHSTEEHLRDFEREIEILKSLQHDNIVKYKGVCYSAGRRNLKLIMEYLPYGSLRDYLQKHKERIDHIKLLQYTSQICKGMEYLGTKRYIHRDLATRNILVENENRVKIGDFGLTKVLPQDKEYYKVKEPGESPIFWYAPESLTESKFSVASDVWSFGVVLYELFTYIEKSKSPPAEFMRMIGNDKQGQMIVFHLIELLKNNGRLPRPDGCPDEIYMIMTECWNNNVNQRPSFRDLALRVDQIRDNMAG

CN1CCC(S(=O)(=O)c2ccc(OC(F)F)c(-c3nn(C)cc3NC(=O)c3cnn4cccnc34)c2)C1 (single isomer, unassigned) [Example 19, N-[3-[2-(difluoromethoxy)-5-(1-methylpyrrolidin-3-yl)sulfonyl-phenyl]-1-methyl-pyrazol-4-yl]pyrazolo[1,5-a]pyrimidine-3-carboxamide]
Ki [1]: 1.7 nM | Ki [2]: 4 nM | IC50 ([3]; Homo sapiens, BEAS-2B): 120 nM

CN1CCC(S(=O)(=O)c2ccc(OC(F)F)c(-c3nn(C)cc3NC(=O)c3cnn4cccnc34)c2)C1 (single isomer, unassigned) [Example 20, N-[3-[2-(difluoromethoxy)-5-(1-methylpyrrolidin-3-yl)sulfonyl-phenyl]-1-methyl-pyrazol-4-yl]pyrazolo[1,5-a]pyrimidine-3-carboxamide]
Ki [1]: 0.65 nM | Ki [2]: 1.5 nM | IC50 [3]: 65 nM

CS(=O)(=O)c1ccc(OC(F)F)c(-c2nn(C3CCOC3=O)cc2NC(=O)c2cnn3cccnc23)c1 (single isomer, unassigned) [Example 32, N-[3-[2-(difluoromethoxy)-5-methylsulfonyl-phenyl]-1-(2-oxotetrahydrofuran-3-yl)pyrazol-4-yl]pyrazolo[1,5-a]pyrimidine-3-carboxamide]
Ki [1]: 0.62 nM | Ki [2]: 1.1 nM | IC50 ([3]; Homo sapiens, BEAS-2B): 120 nM

CS(=O)(=O)c1ccc(OC(F)F)c(-c2nn(C3CCOC3=O)cc2NC(=O)c2cnn3cccnc23)c1 (single isomer, unassigned) [Example 33, N-[3-[2-(difluoromethoxy)-5-methylsulfonyl-phenyl]-1-(2-oxotetrahydrofuran-3-yl)pyrazol-4-yl]pyrazolo[1,5-a]pyrimidine-3-carboxamide]
Ki [1]: 0.23 nM | Ki [2]: 0.4 nM | IC50 [3]: 99 nM

CC(O)C(C)S(=O)(=O)c1ccc(OC(F)F)c(-c2nn(C)cc2NC(=O)c2cnn3cccnc23)c1 (single isomer, unassigned) [Example 70, N-[3-[2-(difluoromethxoy)-5-(2-hydroxy-1-methyl-propyl)sulfonyl-phenyl]-1-methyl-pyrazol-4-yl]pyrazolo[1,5-a]pyrimidine-3-carboxamide]
Ki [1]: 0.33 nM | Ki [2]: 1 nM | IC50 [3]: 75 nM

CC(O)C(C)S(=O)(=O)c1ccc(OC(F)F)c(-c2nn(C)cc2NC(=O)c2cnn3cccnc23)c1 (single isomer, unassigned) [Example 71, N-[3-[2-(difluoromethoxy)-5-(2-hydroxy-1-methyl-propyl)sulfonyl-phenyl]-1-methyl-pyrazol-4-yl]pyrazolo[1,5-a]pyrimidine-3-carboxamide]
Ki [1]: 0.46 nM | Ki [2]: 1.4 nM | IC50 [3]: 110 nM

CN1CCCC1CCn1cc(S(=O)(=O)c2ccc(OC(F)F)c(-c3nn(C)cc3NC(=O)c3cnn4cccnc34)c2)cn1 (stereo in doubt) [Example 57, N-[3-[2-(difluoromethoxy)-5-[1-[2-[(2S)-1-methylpyrrolidin-2-yl]ethyl]pyrazol-4-yl]sulfonyl-phenyl]-1-methyl-pyrazol-4-yl]pyrazolo[1,5-a]pyrimidine-3-carboxamide]
Ki [1]: 0.54 nM | Ki [2]: 0.57 nM | IC50 ([3]; Homo sapiens, BEAS-2B): 54 nM

CN1CC(S(=O)(=O)c2ccc(OC(F)F)c(-c3nn(C)cc3NC(=O)c3cnn4cccnc34)c2)C1 [Example 3, N-[3-[2-(difluoromethoxy)-5-(1-methylazetidin-3-yl)sulfonyl-phenyl]-1-methyl-pyrazol-4-yl]pyrazolo[1,5-a]pyrimidine-3-carboxamide]
Ki [1]: 0.66 nM | Ki [2]: 2 nM | IC50 ([3]; Homo sapiens, BEAS-2B): 58 nM

Cn1cc(NC(=O)c2cnn3cccnc23)c(-c2cc(S(=O)(=O)C3CNC3)ccc2OC(F)F)n1 [Example 4, N-[3-[5-(azetidin-3-ylsulfonyl)-2-(difluoromethoxy)phenyl]-1-methyl-pyrazol-4-yl]pyrazolo[1,5-a]pyrimidine-3-carboxamide]
Ki [1]: 0.6 nM | Ki [2]: 1.4 nM | IC50 ([3]; Homo sapiens, BEAS-2B): 180 nM
